Assay results as given in ChEMBL document CHEMBL4828768, “Talaromynoids A-I, Highly Oxygenated Meroterpenoids from the Marine-Derived Fungus Talaromyces purpureogenus SCSIO 41517 and Their Lipid Accumulation Inhibitory Activities” (J Nat Prod, 2021).
Calls of active or inactive are those of the source. No cut-off for these calls is given here.

Experiments:
Details in all cases: dose 6.7 µg/ml
[1] = target: Tyrosine-protein phosphatase non-receptor type 6 (Homo sapiens) (UniProt P29350); assay: Inhibition of human recombinant SHP1 expressed in Escherichia coli assessed as inhibition of phosphatase activity by measuring p-nitrophenyl phosphate at 6.7 microg/ml measured after 60 mins
Tyrosine-protein phosphatase non-receptor type 6 (Homo sapiens), sequence (P29350 whole entry): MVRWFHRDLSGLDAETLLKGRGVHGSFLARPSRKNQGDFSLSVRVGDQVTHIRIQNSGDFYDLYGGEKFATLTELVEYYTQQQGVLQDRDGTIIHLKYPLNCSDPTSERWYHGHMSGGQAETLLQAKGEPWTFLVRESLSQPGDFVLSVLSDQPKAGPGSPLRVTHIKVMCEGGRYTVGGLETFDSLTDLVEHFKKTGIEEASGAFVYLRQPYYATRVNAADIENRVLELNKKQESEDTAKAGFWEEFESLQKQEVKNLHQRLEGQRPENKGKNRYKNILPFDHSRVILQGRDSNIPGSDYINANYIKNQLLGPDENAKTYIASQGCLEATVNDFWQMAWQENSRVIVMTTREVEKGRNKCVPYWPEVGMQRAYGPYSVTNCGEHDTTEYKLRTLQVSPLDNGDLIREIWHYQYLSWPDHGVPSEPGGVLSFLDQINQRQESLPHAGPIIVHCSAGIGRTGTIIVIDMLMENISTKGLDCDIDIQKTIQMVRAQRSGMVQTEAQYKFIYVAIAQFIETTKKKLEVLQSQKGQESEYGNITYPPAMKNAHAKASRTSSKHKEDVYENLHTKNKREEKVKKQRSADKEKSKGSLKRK

[2] = target: T1, Tyrosine-protein phosphatase non-receptor type 2 (Homo sapiens) (UniProt P17706); assay: Inhibition of human recombinant TCPTP expressed in Escherichia coli assessed as inhibition of phosphatase activity by measuring p-nitrophenyl phosphate at 6.7 microg/ml measured after 60 mins
T1 sequence (whole entry): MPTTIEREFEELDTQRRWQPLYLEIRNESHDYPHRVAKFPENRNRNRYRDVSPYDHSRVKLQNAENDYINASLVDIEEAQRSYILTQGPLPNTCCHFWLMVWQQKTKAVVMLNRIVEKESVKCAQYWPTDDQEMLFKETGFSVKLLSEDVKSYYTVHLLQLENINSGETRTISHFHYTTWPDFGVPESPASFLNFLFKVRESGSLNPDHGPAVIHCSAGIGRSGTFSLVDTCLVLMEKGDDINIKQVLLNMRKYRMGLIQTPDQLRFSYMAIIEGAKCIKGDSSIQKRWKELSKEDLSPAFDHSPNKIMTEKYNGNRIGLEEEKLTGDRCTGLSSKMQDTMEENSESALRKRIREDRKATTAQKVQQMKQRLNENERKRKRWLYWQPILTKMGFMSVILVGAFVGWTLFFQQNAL

[3] = target: T2, Tyrosine-protein phosphatase non-receptor type 9 (Homo sapiens) (UniProt P43378); assay: Inhibition of human recombinant MEG2 expressed in Escherichia coli assessed as inhibition of phosphatase activity by measuring p-nitrophenyl phosphate at 6.7 microg/ml measured after 60 mins
T2 sequence (whole entry): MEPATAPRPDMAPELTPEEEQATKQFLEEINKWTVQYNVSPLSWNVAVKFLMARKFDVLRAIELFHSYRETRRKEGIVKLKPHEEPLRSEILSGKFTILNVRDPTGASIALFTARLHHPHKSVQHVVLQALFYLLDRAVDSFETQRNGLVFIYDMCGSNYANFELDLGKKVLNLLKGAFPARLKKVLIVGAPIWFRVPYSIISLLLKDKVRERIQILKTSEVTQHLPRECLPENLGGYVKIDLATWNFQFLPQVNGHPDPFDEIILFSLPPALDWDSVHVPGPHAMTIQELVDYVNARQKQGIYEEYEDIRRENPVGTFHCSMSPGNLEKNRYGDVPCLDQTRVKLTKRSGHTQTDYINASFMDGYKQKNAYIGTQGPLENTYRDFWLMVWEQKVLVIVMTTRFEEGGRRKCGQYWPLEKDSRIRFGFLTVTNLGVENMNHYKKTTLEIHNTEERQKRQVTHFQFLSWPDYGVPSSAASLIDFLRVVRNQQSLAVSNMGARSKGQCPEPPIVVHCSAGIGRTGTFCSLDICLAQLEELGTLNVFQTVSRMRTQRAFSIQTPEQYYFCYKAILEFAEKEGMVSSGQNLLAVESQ

[4] = target: T3, Tyrosine-protein phosphatase non-receptor type 1 (Homo sapiens) (UniProt P18031); assay: Inhibition of human recombinant PTP1B expressed in Escherichia coli assessed as inhibition of phosphatase activity by measuring p-nitrophenyl phosphate at 6.7 microg/ml measured after 60 mins
T3 sequence (whole entry): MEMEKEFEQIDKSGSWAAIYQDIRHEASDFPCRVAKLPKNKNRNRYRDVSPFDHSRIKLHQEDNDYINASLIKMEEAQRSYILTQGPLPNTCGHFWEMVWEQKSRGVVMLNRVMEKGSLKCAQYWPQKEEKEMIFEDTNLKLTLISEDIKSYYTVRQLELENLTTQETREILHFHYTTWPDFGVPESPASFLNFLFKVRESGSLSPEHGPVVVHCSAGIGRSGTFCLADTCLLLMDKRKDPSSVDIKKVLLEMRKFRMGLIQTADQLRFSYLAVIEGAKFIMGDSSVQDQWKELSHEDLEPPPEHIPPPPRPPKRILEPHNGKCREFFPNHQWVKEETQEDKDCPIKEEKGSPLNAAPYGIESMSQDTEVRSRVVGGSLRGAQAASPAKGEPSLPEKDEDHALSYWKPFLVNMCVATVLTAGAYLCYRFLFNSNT

[5] = target: T4, M-phase inducer phosphatase 2 (Homo sapiens) (UniProt P30305); assay: Inhibition of human recombinant CDC25B expressed in Escherichia coli assessed as inhibition of phosphatase activity by measuring p-nitrophenyl phosphate at 6.7 microg/ml measured after 60 mins
T4 sequence (whole entry): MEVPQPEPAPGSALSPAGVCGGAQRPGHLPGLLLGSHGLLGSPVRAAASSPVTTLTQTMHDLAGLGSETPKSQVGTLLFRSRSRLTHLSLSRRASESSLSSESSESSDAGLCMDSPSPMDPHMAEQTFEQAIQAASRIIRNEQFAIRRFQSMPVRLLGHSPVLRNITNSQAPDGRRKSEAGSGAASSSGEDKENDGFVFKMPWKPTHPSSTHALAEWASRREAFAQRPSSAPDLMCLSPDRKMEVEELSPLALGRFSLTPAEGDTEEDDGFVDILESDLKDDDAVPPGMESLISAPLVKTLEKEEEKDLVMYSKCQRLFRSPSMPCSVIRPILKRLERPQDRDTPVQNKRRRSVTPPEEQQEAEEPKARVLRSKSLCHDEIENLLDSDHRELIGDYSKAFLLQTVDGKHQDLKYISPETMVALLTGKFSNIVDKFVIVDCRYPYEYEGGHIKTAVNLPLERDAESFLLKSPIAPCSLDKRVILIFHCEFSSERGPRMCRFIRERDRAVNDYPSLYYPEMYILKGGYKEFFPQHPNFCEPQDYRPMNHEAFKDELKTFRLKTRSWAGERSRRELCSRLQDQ

inhibition [1] | inhibition [2] | inhibition [3] | inhibition [4] | inhibition [5] | SMILES
< 60% | < 60% | < 60% | < 60% | < 60% | COC(=O)[C@]12C(=O)[C@@](C)(O)C(=O)[C@](C)(C[C@H]3C(C)=C4CC(=O)OC(C)(C)C4=CC[C@@]31C)[C@]21CO1
< 60% | < 60% | < 60% | < 60% | < 60% | COC(=O)[C@]12[C@@H]3[C@H]4OC(=O)[C@]3(C)CC3=C(C)C5=C(C[C@H](O[C@]1(O)[C@H](C)O4)[C@@]32C)C(C)(C)OC(=O)C5
< 60% | < 60% | < 60% | < 60% | < 60% | COC(=O)[C@]12[C@@H]3[C@@H](O)O[C@@H](C)[C@@]14OC(=O)[C@]3(C)C[C@H]1C(C)=C3CC(=O)OC(C)(C)[C@@]35O[C@H]5[C@H](O4)[C@@]12C
< 60% | < 60% | < 60% | < 60% | < 60% | COC(=O)[C@]12C(=O)[C@H](C)O[C@@H]3OC(=O)[C@](C)(C[C@H]4C(C)=C5CC(=O)OC(C)(C)C5=CC[C@@]41C)[C@@H]32 [BERKELEYACETAL A]
< 60% | < 60% | < 60% | < 60% | < 60% | COC(=O)[C@]12[C@@H]3[C@H]4OC(=O)[C@]3(C)C[C@H]3C(C)=C5CC(=O)OC(C)(C)[C@@]56O[C@H]6[C@H](O[C@]1(O)[C@H](C)O4)[C@@]32C
< 60% | < 60% | < 60% | < 60% | < 60% | CC1=C2CC(=O)OC(C)(C)C2=CC[C@@]2(C)[C@H]1C[C@@](C)(C(=O)O)[C@]13COC(=O)[C@@]12C(=O)[C@H](C)O3

Second part, the compound before the results:

SMILES | inhibition [1] | inhibition [2] | inhibition [3] | inhibition [4] | inhibition [5]
CC1=C2CC(=O)OC(C)(C)[C@]23O[C@@H]3[C@@H]2O[C@@]3(O)[C@@H](C)O[C@H]4OC(=O)[C@]5(C)C[C@H]1[C@]2(C)[C@@]31C(=O)O[C@@]415 | < 60% | < 60% | < 60% | < 60% | < 60%
COC(=O)CC1=C(C)[C@@H]2C[C@@]3(C)C(=O)O[C@H]4O[C@@H](C)[C@@]5(O)O[C@@H]([C@@H]6O[C@]16C(C)(C)O)[C@]2(C)[C@@]5(C(=O)OC)[C@]43O | < 60% | < 60% | < 60% | < 60% | < 60%
COC(=O)[C@@]12[C@@]3(C)[C@@H]4C=C5C(=CC(=O)OC5(C)C)[C@@](C)(O)[C@@H]3C[C@@]3(C)C(=O)O[C@@H](O[C@@H](C)[C@@]1(O)O4)[C@@]23O | < 60% | < 60% | < 60% | < 60% | Active
COC(=O)CC1=C(C)[C@@H]2C[C@@]3(C)C(=O)O[C@H]4O[C@@H](C)[C@@]5(O)O[C@@H]([C@@H]6O[C@]16C(C)(C)O)[C@]2(C)[C@@]5(C(=O)OC)[C@H]43 | < 60% | < 60% | < 60% | < 60% | < 60%
COC(=O)[C@]12C3=C(C)O[C@@H]4OC(=O)[C@](C)(C[C@H]5C(C)=C6CC(=O)O[C@@]6(C(C)(C)O)[C@@H](C[C@@]51C)O3)[C@@H]42 | < 60% | < 60% | < 60% | < 60% | < 60%
COC(=O)CC1=C(C)[C@H]2C[C@]3(C)C(=O)O[C@@H]4O[C@H](C)[C@]5(O)O[C@@H]([C@H]6O[C@@]16C(C)(C)O)[C@@]2(C)[C@@]51C(=O)O[C@@]413 | < 60% | < 60% | < 60% | < 60% | < 60%
COC(=O)[C@]12C3=C(C)O[C@@H]4OC(=O)[C@](C)(C[C@H]5C(C)=C6CC(=O)O[C@@]6(C(C)(C)O)[C@H](O3)[C@H](O)[C@@]51C)[C@@H]42 | < 60% | < 60% | < 60% | < 60% | < 60%
